Results published in US7951807B2 (Abbott GmbH & Co. KG, priority 2004, dated 2011).
pKi: −log10 of the molar value. Structures can show the parent of a compound that is named as a salt.

Key:
[1] = target: T1, human V1a receptors (Homo sapiens); assay: Vasopressin V1a Receptor Binding Test; conditions: membranes of CHO cells with stably expressed human V1a receptors, 125 iodine AVP displacement
T1 construct: expressed in transfected cells
Method: Vasopressin V1a Receptor Binding Test
(§1) The substances were dissolved in DMSO in a concentration of 10^−2 M and further diluted in DMSO to 10^−3 M to 10^−9 M. These DMSO solutions were diluted 1:10 with a test buffer. In the test batch, the substance concentration was again diluted 1:10.
The binding test was conducted according to the method of Tahara et al. (Tahara A. et al., Brit. J. Pharmacol. 125, 1463-1470 (1998)). In the test batch (0.250 ml), membranes (50 μg protein in an incubation buffer (50 mmol tris, 10 mmol MgCl2, 0.1% BSA adjusted to pH 7.4 with HCl)) of CHO cells were incubated with stably expressed human V1a receptors (preparation V1a clone 5.0, with protease inhibitors, Roche complete Mini # 1836170) with 0.04 nmol 125 iodine AVP (NEX128) in the incubation buffer (total binding) or additionally with increasing concentrations of the test substance (displacement experiment). The non-specific binding was determined with 10^−6 M AVP. Determinations were carried out three times.
(§2) After incubation, 60 minutes at room temperature, the free radioligand was filtered off using vacuum filtration (Skatron cell harvester 7000) through Wathman GF/B fibreglass filters, and the filters were transferred to scintillation containers.
(§3) The liquid scintillation measurement was made in a Tricarb device, model 2000 or 2200CA (Packard). The conversion of the measured cpm into dpm was carried out with the help of a standard quench series.
(§4) The binding parameters were calculated using non-linear regression in SAS. The algorithms of the program work in a manner analogous to the LIGAND evaluation program (Munson P J und Rodbard D, Analytical Biochem. 107, 220-239 (1980)).

[2] = target: T2, human V1b receptors (Homo sapiens, UniProt P47901); assay: Vasopressin V1b Receptor Binding Test; conditions: membranes of CHO-K1 cells with stably expressed human V1b receptors, 3H-AVP displacement
T2 construct: expressed in transfected cells
T2 sequence (P47901 1-424): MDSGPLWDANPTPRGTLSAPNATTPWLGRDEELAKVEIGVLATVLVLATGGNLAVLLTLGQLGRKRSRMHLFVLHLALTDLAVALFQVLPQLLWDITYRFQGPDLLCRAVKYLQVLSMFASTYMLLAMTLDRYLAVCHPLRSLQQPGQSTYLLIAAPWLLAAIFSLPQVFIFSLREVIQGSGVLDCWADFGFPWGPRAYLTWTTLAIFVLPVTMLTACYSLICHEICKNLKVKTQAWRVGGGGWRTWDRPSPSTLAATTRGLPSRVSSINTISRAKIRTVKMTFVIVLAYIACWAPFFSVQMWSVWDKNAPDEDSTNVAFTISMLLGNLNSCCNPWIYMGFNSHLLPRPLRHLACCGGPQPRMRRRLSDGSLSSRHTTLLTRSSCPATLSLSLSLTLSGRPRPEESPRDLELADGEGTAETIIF
Method: Vasopressin V1b Receptor Binding Test
as §1
The binding test was conducted according to the method of Tahara et al. (Tahara A. et al., Brit. J. Pharmacol. 125, 1463-1470 (1998)). In the test batch (0.250 ml), membranes (58 μg protein in an incubation buffer) of CHO-K1 cells were incubated with stably expressed human V1b receptors (preparation V1b-3H2, with protease inhibitors, Roche complete Mini # 1836170) with 1.5 nmol ^3H-AVP (8-Arg-Vasopressin, NET 800) in incubation buffer (50 mmol Tris, 10 mmol MgCl2, 0.1% BSA adjusted to pH 7.4 with HCl) (total binding) or additionally with increasing concentrations of the test substance (displacement experiment). The non-specific binding was determined with 10^−6 M AVP. Determinations were carried out three times.
Incubation buffer: 50 mmol tris, 10 mmol MgCl2, 0.1% BSA adjusted to pH 7.4 with HCl.
as §2, §3, §4

SMILES | pKi [1] | pKi [2]
COc1ccccc1C1(OC(=O)N2CCN(C3CCN(C)CC3)CC2)C(=O)N(S(=O)(=O)c2ccccc2)c2ccc(Cl)cc21 (stereo not drawn) [Example 1] | > 7.00 | 
COc1ccc(S(=O)(=O)N2C(=O)C(NC(=O)N3CCN(C4CCN(C)CC4)CC3)(c3ccccc3OC)c3cc(Cl)ccc32)c(OC)c1 (stereo not drawn) [Example 3, 4-(1-Methyl-piperidine-4-yl)-piperazine-1-carboxylic acid-[1-(2,4-dimethoxy-benzenesulfonyl)-5-chloro-2-oxo-3-(2-methoxyphenyl)-2,3-dihydro-1H-indole-3-yl] amide dihydrochloride] | > 7.00 | 
COc1ccc(S(=O)(=O)N2C(=O)C(NC(=O)N3CCN(C4CCN(C)CC4)CC3)(c3ccccc3OC)c3cc(OC)ccc32)c(OC)c1 (stereo not drawn) [Example 16, 4-(1-Methyl-piperidine-4-yl)-piperazine-1-carboxylic acid-[1-(2,4-dimethoxy-benzenesulfonyl)-5-methoxy-2-oxo-3-(2-methoxyphenyl)-2,3-dihydro-1H-indole-3-yl] amide dihydrochloride] |  | > 7.00
COc1ccc(S(=O)(=O)N2C(=O)C(OC(=O)N3CCN(C4CCN(C)CC4)CC3)(c3ccccc3OC(C)C)c3cc(OC)ccc32)c(OC)c1 (stereo not drawn) [Example 24, 4-(1-Methyl-piperidine-4-yl)-piperazine-1-carboxylic acid-[1-(2,4-dimethoxy-benzenesulfonyl)-5-methoxy-2-oxo-3-(2-isopropoxyphenyl)-2,3-dihydro-1H-indole-3-yl] ester dihydrochloride] |  | > 7.00
COc1ccc2c(c1)C(OC(=O)N1CCN(C3CCN(C)CC3)CC1)(c1ccccc1OC(C)C)C(=O)N2S(=O)(=O)c1ccc(C)cc1OC (stereo not drawn) [Example 26, 4-(1-Methyl-piperidine-4-yl)-piperazine-1-carboxylic acid-[1-(2-methoxy-4-methyl-benzene)-sulfonyl-5-methoxy-2-oxo-3-(2-isopropoxyphenyl)-2,3-dihydro-1H-indole-3-yl] ester dihydrochloride] |  | > 7.00
CCOc1ccccc1C1(OC(=O)N2CCN(C3CCN(C)CC3)CC2)C(=O)N(S(=O)(=O)c2ccc(OC)cc2OC)c2ccc(OC)cc21 (stereo not drawn) [Example 30, 4-(1-Methyl-piperidine-4-yl)-piperazine-1-carboxylic acid-[1-(2,4-dimethoxy-benzenesulfonyl)-5-methoxy-2-oxo-3-(2-ethoxyphenyl)-2,3-dihydro-1H-indole-3-yl] ester dihydrochloride] |  | > 7.00

Now from value to molecule:

pKi [1] | pKi [2] | SMILES
 | > 7.00 | CCCOc1ccccc1C1(OC(=O)N2CCN(C3CCN(C)CC3)CC2)C(=O)N(S(=O)(=O)c2ccc(OC)cc2OC)c2ccc(OC)cc21 (stereo not drawn) [Example 2, 4-(1-Methyl-piperidine-4-yl)-piperazine-1-carboxylic acid-[1-(2,4-dimethoxy-benzenesulfonyl)-5-methoxy-2-oxo-3-(2-propoxyphenyl)-2,3-dihydro-1H-indole-3-yl] ester]
> 7.00 |  | CN1CCC(N2CCN(C(=O)OC3(c4ccccc4)C(=O)N(S(=O)(=O)c4ccccc4)c4ccc(Cl)cc43)CC2)CC1 (stereo not drawn) [Example 4, 4-(1-Methyl-piperidine-4-yl)-piperazine-1-carboxylic acid-[1-benzenesulfonyl-5-chloro-2-oxo-3-phenyl-2,3-dihydro-1H-indole-3-yl] ester dihydrochloride]
> 7.00 |  | CN1CCN(C2CCN(C(=O)OC3(c4ccccc4)C(=O)N(S(=O)(=O)c4ccccc4)c4ccc(Cl)cc43)CC2)CC1 (stereo not drawn) [Example 5, 4-(4-Methyl-piperazine-1-yl)-piperidine-1-carboxylic acid-[1-benzenesulfonyl-5-chloro-2-oxo-3-phenyl-2,3-dihydro-1H-indole-3-yl] ester]
 | > 7.00 | COc1ccc(S(=O)(=O)N2C(=O)C(OC(=O)N3CCN(C4CCN(C)CC4)CC3)(c3ccccc3OC)c3cc(OC)ccc32)c(OC)c1 (stereo not drawn) [Example 6, 4-(1-Methyl-piperidine-4-yl)-piperazine-1-carboxylic acid-[1-(2,4-dimethoxy-benzenesulfonyl)-5-methoxy-2-oxo-3-(2-methoxyphenyl)-2,3-dihydro-1H-indole-3-yl] ester dihydrochloride]
> 7.00 |  | COc1ccc(S(=O)(=O)N2C(=O)C(OC(=O)N3CCN(C4CCN(C)CC4)CC3)(c3ccccc3C)c3cc(OC)ccc32)c(OC)c1 (stereo not drawn) [Example 8, 4-(1-Methyl-piperidine-4-yl)-piperazine-1-carboxylic acid-[1-(2,4-dimethoxy-benzenesulfonyl)-5-methoxy-2-oxo-3-(2-methylphenyl)-2,3-dihydro-1H-indole-3-yl] ester dihydrochloride]
 | > 7.00 | COc1ccc(S(=O)(=O)N2C(=O)C(OC(=O)N3CCN(C4CCN(C)CC4)CC3)(c3ccccc3OC)c3cc(F)ccc32)c(OC)c1 (stereo not drawn) [Example 10, 4-(1-Methyl-piperidine-4-yl)-piperazine-1-carboxylic acid-[1-(2,4-dimethoxy-benzenesulfonyl)-5-fluoro-2-oxo-3-(2-methoxyphenyl)-2,3-dihydro-1H-indole-3-yl] ester]
> 7.00 |  | COc1ccc(S(=O)(=O)N2C(=O)C(OC(=O)N3CCN(C4CCN(Cc5ccccc5)CC4)CC3)(c3ccccc3OC)c3cc(OC)ccc32)c(OC)c1 (stereo not drawn) [Example 13, 4-(1-Benzyl-piperidine-4-yl)-piperazine-1-carboxylic acid-[1-(2,4-dimethoxy-benzenesulfonyl)-5-methoxy-2-oxo-3-(2-methoxyphenyl)-2,3-dihydro-1H-indole-3-yl] ester]
 | > 7.00 | COc1ccc(S(=O)(=O)N2C(=O)C(OC(=O)N3CCN(C4CCN(C)CC4)CC3)(c3ccccc3OC)c3cc(C)ccc32)c(OC)c1 (stereo not drawn) [Example 17, 4-(1-Methyl-piperidine-4-yl)-piperazine-1-carboxylic acid-[1-(2,4-dimethoxy-benzenesulfonyl)-5-methyl-2-oxo-3-(2-methoxyphenyl)-2,3-dihydro-1H-indole-3-yl] ester dihydrochloride]
 | > 7.00 | COc1ccc(S(=O)(=O)N2C(=O)C(OC(=O)N3CCN(C4CCN(C)CC4)CC3)(c3ccccc3OC)c3ccccc32)c(OC)c1 (stereo not drawn) [Example 23, 4-(1-Methyl-piperidine-4-yl)-piperazine-1-carboxylic acid-[1-(2,4-dimethoxy-benzenesulfonyl)-2-oxo-3-(2-methoxyphenyl)-2,3-dihydro-1H-indole-3-yl] ester dihydrochloride]
